How the values were obtained:
[1] = tested on: RFPEC glycocalyx (adsorbed BSA); assay: Whole glycocalyx thickness and coverage by BSA immunofluorescence (Example 2); assay type: cell-based, rat; details: Hep III 2 h then 16 h, with or without 59 μg/mL HS
Experimental: (§1) RFPEC Culture. A rat fat pad endothelial cell (RFPEC) line^37 was utilized, originally isolated from rat epididymal fat pads by Dr. Mia Thi of Albert Einstein College of Medicine (Bronx, N.Y., USA). RFPECs were selected for their ability to naturally express a robust glycocalyx.^38 These ECs were cultured in tissue culture flasks at 37° C. and 5% CO2 in a humidified environment with Dulbecco's Modified Eagle's Medium (DMEM) supplemented with 10% fetal bovine serum (FBS) and 1% penicillin-streptomycin, all purchased from Thermo Fisher Scientific (Waltham, Mass., USA). For 3-(4,5-dimethylthiazol-2-yl)-5-(3-carboxymethoxyphenyl)-2-(4-sulfophenyl)-2H-tetrazolium (MTS) assays (Sigma-Aldrich Co., St Louis, Mo., USA), RFPECs were seeded at 3.7×10^4 cells/cm^2 in tissue culture-treated, 96-well plates (Falcon; Thermo Fisher Scientific) and imaged on a SpectraMax M3 plate reader to show cell viability and metabolic activity. For confocal imaging, RFPECs were seeded onto 12-mm diameter round glass cover slips (Thermo Fisher Scientific) at 1×10^4 cells/cm^2 in tissue culture-treated six-well plates (Falcon; Thermo Fisher Scientific). […]
RFPEC glycocalyx treatments. […] The red fluorescence detected from conjugated Alexa Fluor 647 was attributed to AuNP within the RFPEC monolayers (details are given in the “Confocal imaging and analysis” section). […]

RFPEC = assay: PEG-AuNP uptake by RFPEC under glycocalyx conditions (confocal red fluorescence); assay type: cell-based, rat; details: repaired glycocalyx (Hep III, then 59 μg/mL exogenous HS); 550 μg/mL PEG-AuNP, 16 hours
Experimental: as §1, with “activity.” for “activity. For confocal imaging, RFPECs were seeded onto 12-mm diameter round glass cover slips (Thermo Fisher Scientific) at 1×10^4 cells/cm^2 in tissue culture-treated six-well plates (Falcon; Thermo Fisher Scientific).”
PEG-AuNP. […] After dialysis in 12-14 kDa molecular weight cutoff tubes (EMD Millipore, Billerica, Mass., USA) and lyophilization, an Alexa Fluor 647 N-hydroxysuccinimide (NHS) ester (succinimidyl ester) was conjugated onto the NH2 functional groups on the AuNP to allow for visualization under fluorescence. […] PEG-AuNP fluorescence activity was confirmed using a Jobin Yvon Fluoromax 4. […]

heparan sulfate [HS]
whole glycocalyx (BSA) coverage of the EC layer [1]: 75.2%+4.0% | whole glycocalyx (BSA) thickness ([1]; mean±SEM): 2.41±0.3 μm | PEG-AuNP uptake relative to cells with healthy, intact glycocalyx (RFPEC): 1.3±0.3 fold

— patent US20200023001A1, “GlycoFix (Structurally And Functionally Repaired Endothelial Glycocalyx)” (Northeastern University, priority 2018, published 2020)
